In patent US20250270209A1 (INTERLINE THERAPEUTICS, INC., priority 2022, published 2025):

What was measured:
LRRK2 wild type enzyme = LRRK2 wild type enzyme (Homo sapiens, UniProt Q5S007); experiment: Biochemical Assay: LRRK2 TR-FRET (LanthaScreen) kinase assay with LRRKtide substrate; conditions: LRRK2 Inhibition, Table 8
Outline: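 TR-FRET detection (Tb-labelled phospho-LRRKtide antibody, EDTA stop, 30 min) followed a 120 min, 23 °C reaction of 3 nM wild-type human LRRK2 with LRRKtide (400 nM) and ATP (25 μM) in Tris pH 8.0. Compounds: 11-point 3-fold series from 10 μM, 15 min enzyme preincubation.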

[1] = molecular target: T1, wild type LRRK2 overexpressed in recombinant HEK-293T cells (Homo sapiens, UniProt Q5S007); experiment: pS935 LRRK2 Cell Assay (HTRF, phospho-LRRK2 Ser935); assay type: cell-based; conditions: LRRK2 Inhibition, Table 8, 2 hours compound incubation
T1 construct: host or cells: HEK293T (transient transfection with pCMV-LRRK2 WT plasmid)
Outline: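 Phospho-Ser935 LRRK2 measured by two-antibody HTRF (Eu-cryptate donor, d2 acceptor; 665/615 nm ratio) after overnight detection at 23° C. Before lysis, transiently LRRK2-transfected HEK-293T cells were exposed 2 h at 37° C to a 9-point, 3-fold series from 10 μM, with DMSO at 0.2%.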

Sequence of LRRK2 wild type enzyme (Q5S007 whole entry): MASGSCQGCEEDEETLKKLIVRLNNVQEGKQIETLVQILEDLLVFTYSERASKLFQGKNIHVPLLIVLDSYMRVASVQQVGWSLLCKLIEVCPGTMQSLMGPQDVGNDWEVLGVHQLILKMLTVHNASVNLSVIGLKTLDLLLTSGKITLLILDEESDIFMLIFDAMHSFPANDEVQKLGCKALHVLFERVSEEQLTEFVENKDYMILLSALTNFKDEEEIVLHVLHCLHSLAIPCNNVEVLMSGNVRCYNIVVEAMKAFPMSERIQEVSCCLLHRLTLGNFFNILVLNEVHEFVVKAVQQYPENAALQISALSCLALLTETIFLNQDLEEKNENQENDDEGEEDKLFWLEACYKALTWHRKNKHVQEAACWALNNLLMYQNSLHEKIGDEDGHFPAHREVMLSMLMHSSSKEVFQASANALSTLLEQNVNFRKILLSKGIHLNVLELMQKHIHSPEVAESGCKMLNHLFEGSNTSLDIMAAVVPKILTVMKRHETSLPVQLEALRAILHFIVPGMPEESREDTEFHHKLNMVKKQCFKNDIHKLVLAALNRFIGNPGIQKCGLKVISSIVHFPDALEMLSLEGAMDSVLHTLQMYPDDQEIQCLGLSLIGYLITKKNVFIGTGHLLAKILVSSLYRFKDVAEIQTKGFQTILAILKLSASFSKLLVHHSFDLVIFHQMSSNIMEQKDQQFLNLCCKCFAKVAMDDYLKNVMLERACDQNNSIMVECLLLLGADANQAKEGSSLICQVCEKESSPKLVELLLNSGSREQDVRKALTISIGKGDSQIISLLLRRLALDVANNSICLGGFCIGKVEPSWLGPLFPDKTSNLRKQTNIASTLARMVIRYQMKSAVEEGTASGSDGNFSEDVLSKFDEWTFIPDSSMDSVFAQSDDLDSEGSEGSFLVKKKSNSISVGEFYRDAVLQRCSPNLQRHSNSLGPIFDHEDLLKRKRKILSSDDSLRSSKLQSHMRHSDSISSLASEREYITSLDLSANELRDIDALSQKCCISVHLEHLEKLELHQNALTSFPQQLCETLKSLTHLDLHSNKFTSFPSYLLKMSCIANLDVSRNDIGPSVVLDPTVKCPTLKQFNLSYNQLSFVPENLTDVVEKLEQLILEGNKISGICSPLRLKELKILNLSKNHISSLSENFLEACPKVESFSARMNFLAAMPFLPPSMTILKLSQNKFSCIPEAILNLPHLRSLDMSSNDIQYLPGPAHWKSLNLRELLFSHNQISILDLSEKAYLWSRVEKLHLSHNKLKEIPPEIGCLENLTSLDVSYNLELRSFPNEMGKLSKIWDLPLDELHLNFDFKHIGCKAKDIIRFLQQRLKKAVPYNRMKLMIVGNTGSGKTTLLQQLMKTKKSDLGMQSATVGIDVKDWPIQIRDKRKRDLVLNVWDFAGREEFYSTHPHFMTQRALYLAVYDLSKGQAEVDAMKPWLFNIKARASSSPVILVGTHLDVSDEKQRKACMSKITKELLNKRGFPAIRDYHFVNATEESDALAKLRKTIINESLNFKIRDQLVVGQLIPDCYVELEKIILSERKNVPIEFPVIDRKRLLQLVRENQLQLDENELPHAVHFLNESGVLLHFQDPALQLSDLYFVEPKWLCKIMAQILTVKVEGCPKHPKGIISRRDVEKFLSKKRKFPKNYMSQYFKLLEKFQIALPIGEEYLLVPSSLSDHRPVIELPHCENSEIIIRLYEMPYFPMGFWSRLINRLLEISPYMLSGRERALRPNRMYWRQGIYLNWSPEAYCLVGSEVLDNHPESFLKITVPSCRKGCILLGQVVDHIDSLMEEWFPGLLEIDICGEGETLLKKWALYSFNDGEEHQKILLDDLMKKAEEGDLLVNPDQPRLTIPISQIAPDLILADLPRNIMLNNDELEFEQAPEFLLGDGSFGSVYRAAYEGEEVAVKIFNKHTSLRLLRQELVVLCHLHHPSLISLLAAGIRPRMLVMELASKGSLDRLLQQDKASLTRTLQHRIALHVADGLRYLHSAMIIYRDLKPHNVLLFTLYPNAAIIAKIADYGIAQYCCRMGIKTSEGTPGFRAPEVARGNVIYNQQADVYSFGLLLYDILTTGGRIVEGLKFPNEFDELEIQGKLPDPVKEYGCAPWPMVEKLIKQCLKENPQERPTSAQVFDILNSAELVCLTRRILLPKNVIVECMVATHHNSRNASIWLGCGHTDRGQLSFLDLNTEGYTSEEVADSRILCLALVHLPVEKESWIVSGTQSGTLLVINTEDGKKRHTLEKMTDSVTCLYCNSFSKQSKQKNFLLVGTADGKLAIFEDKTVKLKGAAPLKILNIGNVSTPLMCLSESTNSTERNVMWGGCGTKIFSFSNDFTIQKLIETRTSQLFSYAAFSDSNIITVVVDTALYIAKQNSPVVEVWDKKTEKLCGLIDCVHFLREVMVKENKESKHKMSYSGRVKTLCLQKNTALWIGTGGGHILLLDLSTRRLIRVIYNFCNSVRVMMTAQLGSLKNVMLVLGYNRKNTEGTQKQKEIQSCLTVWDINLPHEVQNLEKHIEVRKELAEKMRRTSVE
T1 sequence (Q5S007 whole entry): as above

`Cc1ncnc(C)c1NC(=O)Cc1nc2cnc3ccc(Cl)cc3c2n1[C@@H]1CCO[C@H](C)C1` [Compound 207, N-(4,6-dimethyl-5-pyrimidinyl){3-[(2R,4R)-2-methyltetrahydro-2H-pyran-4-yl]-12-chloro-3,5,8-triazatricyclo[7.4.0.0^2,6]trideca-1,4,6,8,10,12-hexaen-4-yl}acetamide] was tested, and the IC50 (LRRK2 wild type enzyme) was 0.333 nM and the IC50 [1] was 7.53 nM.
With `C[C@@H]1C[C@H](n2c(CN)nc3cnc4ccc(C#N)cc4c32)CCO1` [Compound 32, 2-(aminomethyl)-1-[(2R,4R)-2-methyloxan-4-yl]-1H-imidazo[4,5-c]quinoline-8-carbonitrile] the IC50 (LRRK2 wild type enzyme) was 5.55 nM and the IC50 [1] was 425 nM.
For `Cc1oncc1NC(=O)Cc1nc2cnc3ccc(C#N)cc3c2n1[C@@H]1CCO[C@H](C)C1` [Compound 209, N-(5-methyl-4-isoxazolyl){3-[(2R,4R)-2-methyltetrahydro-2H-pyran-4-yl]-12-cyano-3,5,8-triazatricyclo[7.4.0.0^2,6]trideca-1,4,6,8,10,12-hexaen-4-yl}acetamide], the IC50 (LRRK2 wild type enzyme) was 0.427 nM and the IC50 [1] was 13.2 nM.
In the case of `C[C@@H]1C[C@H](n2c(CNc3nccn3C)nc3cnc4ccc(C#N)cc4c32)CCO1` [Compound 12, 2-{[(1-methyl-1H-imidazol-2-yl)amino]methyl}-1-[(2R,4R)-2-methyloxan-4-yl]-1H-imidazo[4,5-c]quinoline-8-carbonitrile], the IC50 (LRRK2 wild type enzyme) is reported as 9.07 nM and the IC50 [1] is reported as > 10000 nM.
In the case of `C[C@@H]1C[C@H](n2c(C3CC(=O)N(CC4CC4)C3)nc3cnc4ccc(C#N)cc4c32)CCO1` (mixture of isomers) [Compound 69, 2-[(3RS)-1-(cyclopropylmethyl)-5-oxopyrrolidin-3-yl]-1-[(2R,4R)-2-methyloxan-4-yl]-1H-imidazo[4,5-c]quinoline-8-carbonitrile], the IC50 (LRRK2 wild type enzyme) is reported as 2.28 nM and the IC50 [1] is reported as 182 nM.
`C[C@@H]1C[C@H](n2c(C3CN(C(=O)C4CC4)C3)nc3cnc4ccc(C#N)cc4c32)CCO1` [Compound 68, 2-(1-cyclopropanecarbonylazetidin-3-yl)-1-[(2R,4R)-2-methyloxan-4-yl]-1H-imidazo[4,5-c]quinoline-8-carbonitrile] gave an IC50 (LRRK2 wild type enzyme) of 7.43 nM and an IC50 [1] of 1140 nM.
Compound `CC(C)Oc1ccc(NC(=O)Cc2nc3cnc4ccc(C#N)cc4c3n2[C@@H]2CCO[C@H](C)C2)cn1` [Compound 273, N-(6-isopropoxy-3-pyridyl){3-[(2R,4R)-2-methyltetrahydro-2H-pyran-4-yl]-12-cyano-3,5,8-triazatricyclo[7.4.0.0^2,6]trideca-1,4,6,8,10,12-hexaen-4-yl}acetamide] has an IC50 (LRRK2 wild type enzyme) of 0.478 nM and an IC50 [1] of 5.59 nM.
With `C[C@@H]1C[C@H](n2c(CC(=O)NCC(C)(C)C#N)nc3cnc4ccc(C#N)cc4c32)CCO1` [Compound 239, N-(2-cyano-2-methylpropyl){3-[(2R,4R)-2-methyltetrahydro-2H-pyran-4-yl]-12-cyano-3,5,8-triazatricyclo[7.4.0.0^2,6]trideca-1(9),2(6),4,7,10,12-hexaen-4-yl}acetamide] the IC50 (LRRK2 wild type enzyme) was 1.32 nM and the IC50 [1] was 169 nM.
`C[C@@H]1C[C@H](n2c(CC(=O)NC3CCc4cccnc43)nc3cnc4ccc(C#N)cc4c32)CCO1` (stereo partly drawn) [Compound 151, 2-{8-cyano-1-[(2R,4R)-2-methyloxan-4-yl]-1H-imidazo[4,5-c]quinolin-2-yl}-N-{5H,6H,7H-cyclopenta[b]pyridin-7-yl}acetamide] showed an IC50 (LRRK2 wild type enzyme) of 0.55 nM and an IC50 [1] of 23.3 nM.
Compound `COc1ncccc1NC(=O)Cc1nc2cnc3ccc(C#N)cc3c2n1[C@@H]1CCO[C@H](C)C1` [Compound 318, N-(2-methoxy-3-pyridyl){3-[(2R,4R)-2-methyltetrahydro-2H-pyran-4-yl]-12-cyano-3,5,8-triazatricyclo[7.4.0.0^2,6]trideca-1(9),2(6),4,7,10,12-hexaen-4-yl}acetamide] has an IC50 (LRRK2 wild type enzyme) of 0.499 nM and an IC50 [1] of 2.04 nM.
Work on `C[C@@H]1C[C@H](n2c(CC(=O)NCC(F)(F)F)nc3cnc4ccc(C#N)cc4c32)CCO1` [Compound 186, 2-{8-cyano-1-[(2R,4R)-2-methyloxan-4-yl]-1H-imidazo[4,5-c]quinolin-2-yl}-N-(2,2,2-trifluoroethyl)acetamide] yielded an IC50 (LRRK2 wild type enzyme) of 0.556 nM and an IC50 [1] of 43.9 nM.
Work on `C[C@@H]1C[C@H](n2c(CC(=O)N[C@@H]3C[C@H]3c3cccnc3)nc3cnc4ccc(C#N)cc4c32)CCO1` [Compound 365, N-[(1R,2S)-2-(3-pyridyl)cyclopropyl]{3-[(2R,4R)-2-methyltetrahydro-2H-pyran-4-yl]-12-cyano-3,5,8-triazatricyclo[7.4.0.0^2,6]trideca-1(13),2(6),4,7,9,11-hexaen-4-yl}acetamide] yielded an IC50 (LRRK2 wild type enzyme) of 0.536 nM and an IC50 [1] of 23.3 nM.
For `C[C@@H]1C[C@H](n2c(CN3CCCC3=O)nc3cnc4ccc(C#N)cc4c32)CCO1` [Compound 80, 1-[(2R,4R)-2-methyloxan-4-yl]-2-[(2-oxopyrrolidin-1-yl)methyl]-1H-imidazo[4,5-c]quinoline-8-carbonitrile], the IC50 (LRRK2 wild type enzyme) was 4.28 nM and the IC50 [1] was 447 nM.
In the case of `C[C@@H]1C[C@H](n2c(CC(=O)NC3CCCCC3)nc3cnc4ccc(C#N)cc4c32)CCO1` [Compound 309, N-cyclohexyl{3-[(2R,4R)-2-methyltetrahydro-2H-pyran-4-yl]-12-cyano-3,5,8-triazatricyclo[7.4.0.0^2,6]trideca-1,4,6,8,10,12-hexaen-4-yl}acetamide], the IC50 (LRRK2 wild type enzyme) is reported as 0.635 nM and the IC50 [1] is reported as 14.4 nM.
Work on `C[C@@H]1C[C@H](n2c(C3CCC(=O)N(CC4CC4)C3)nc3cnc4ccc(C#N)cc4c32)CCO1` (stereo partly drawn) [Compound 50, 2-[1-(cyclopropylmethyl)-6-oxopiperidin-3-yl]-1-[(2R,4R)-2-methyloxan-4-yl]-1H-imidazo[4,5-c]quinoline-8-carbonitrile] yielded an IC50 (LRRK2 wild type enzyme) of 7.5 nM and an IC50 [1] of 875 nM.
Compound `C[C@@H]1C[C@H](n2c(CC(=O)NC3CCCC3)nc3cnc4ccc(C#N)cc4c32)CCO1` [Compound 336, N-cyclopentyl{3-[(2R,4R)-2-methyltetrahydro-2H-pyran-4-yl]-12-cyano-3,5,8-triazatricyclo[7.4.0.0^2,6]trideca-1(9),2(6),4,7,10,12-hexaen-4-yl}acetamide] has an IC50 (LRRK2 wild type enzyme) of 0.732 nM and an IC50 [1] of 10.2 nM.
`COCCn1cc(N2CC(c3nc4cnc5ccc(C#N)cc5c4n3[C@@H]3CCO[C@H](C)C3)CC2=O)cn1` (stereo partly drawn) [Compound 171, 2-{1-[1-(2-methoxyethyl)-1H-pyrazol-4-yl]-5-oxopyrrolidin-3-yl}-1-[(2R,4R)-2-methyloxan-4-yl]-1H-imidazo[4,5-c]quinoline-8-carbonitrile] was tested, and the IC50 (LRRK2 wild type enzyme) was 1.46 nM and the IC50 [1] was 434 nM.
`Cc1ncccc1NC(=O)Cc1nc2cnc3ccc(C#N)cc3c2n1[C@@H]1CCO[C@H](C)C1` [Compound 316, N-(2-methyl-3-pyridyl){3-[(2R,4R)-2-methyltetrahydro-2H-pyran-4-yl]-12-cyano-3,5,8-triazatricyclo[7.4.0.0^2,6]trideca-1(9),2(6),4,7,10,12-hexaen-4-yl}acetamide] showed an IC50 (LRRK2 wild type enzyme) of 0.527 nM and an IC50 [1] of 6.81 nM.
`COc1cc(F)c(NC(=O)Cc2nc3cnc4ccc(C#N)cc4c3n2[C@@H]2CCO[C@H](C)C2)cn1` [Compound 235, N-(4-fluoro-6-methoxy-3-pyridyl){3-[(2R,4R)-2-methyltetrahydro-2H-pyran-4-yl]-12-cyano-3,5,8-triazatricyclo[7.4.0.0^2,6]trideca-1,4,6,8,10,12-hexaen-4-yl}acetamide] gave an IC50 (LRRK2 wild type enzyme) of 0.458 nM and an IC50 [1] of 9.9 nM.
Compound `C[C@@H]1C[C@H](n2c(CC(=O)Nc3cccnc3)nc3cnc4ccc(Cl)cc4c32)CCO1` [Compound 325, N-3-pyridyl{3-[(2R,4R)-2-methyltetrahydro-2H-pyran-4-yl]-12-chloro-3,5,8-triazatricyclo[7.4.0.0^2,6]trideca-1(9),2(6),4,7,10,12-hexaen-4-yl}acetamide] has an IC50 (LRRK2 wild type enzyme) of 0.44 nM and an IC50 [1] of 2.54 nM.
Work on `Cc1nc(NC(=O)Cc2nc3cnc4ccc(C#N)cc4c3n2[C@@H]2CCO[C@H](C)C2)no1` [Compound 368, N-(5-methyl-1,2,4-oxadiazol-3-yl){3-[(2R,4R)-2-methyltetrahydro-2H-pyran-4-yl]-12-cyano-3,5,8-triazatricyclo[7.4.0.0^2,6]trideca-1(9),2(6),4,7,10,12-hexaen-4-yl}acetamide] yielded an IC50 (LRRK2 wild type enzyme) of 0.509 nM and an IC50 [1] of 16.5 nM.
`C[C@@H]1C[C@H](n2c(CC(=O)Nc3cnc(C(F)(F)F)n(C)c3=O)nc3cnc4ccc(C#N)cc4c32)CCO1` [Compound 220, N-[1-methyl-6-oxo-2-(trifluoromethyl)-1,6-dihydro-5-pyrimidinyl]{3-[(2R,4R)-2-methyltetrahydro-2H-pyran-4-yl]-12-cyano-3,5,8-triazatricyclo[7.4.0.0^2,6]trideca-1,4,6,8,10,12-hexaen-4-yl}acetamide] showed an IC50 (LRRK2 wild type enzyme) of 0.447 nM and an IC50 [1] of 4.25 nM.
`CN1CC(n2c(C3CC(=O)N(CC4CC4)C3)nc3cnc4ccc(C#N)cc4c32)CCC1=O` (single isomer, unassigned) [Compound 139] showed an IC50 (LRRK2 wild type enzyme) of 56 nM and an IC50 [1] of 1600 nM.
With `Cc1cccc(CNC(=O)Cc2nc3cnc4ccc(C#N)cc4c3n2[C@@H]2CCO[C@H](C)C2)n1` [Compound 152, 2-{8-cyano-1-[(2R,4R)-2-methyloxan-4-yl]-1H-imidazo[4,5-c]quinolin-2-yl}-N-[(6-methylpyridin-2-yl)methyl]acetamide] the IC50 (LRRK2 wild type enzyme) was 0.318 nM and the IC50 [1] was 3.4 nM.
In the case of `COc1ccncc1NC(=O)Cc1nc2cnc3ccc(C#N)cc3c2n1[C@@H]1CCO[C@H](C)C1` [Compound 250, N-(4-methoxy-3-pyridyl){3-[(2R,4R)-2-methyltetrahydro-2H-pyran-4-yl]-12-cyano-3,5,8-triazatricyclo[7.4.0.0^2,6]trideca-1(9),2(6),4,7,10,12-hexaen-4-yl}acetamide], the IC50 (LRRK2 wild type enzyme) is reported as 0.664 nM and the IC50 [1] is reported as 6.01 nM.
